Experimental data from ChEMBL document CHEMBL1201862, “PubChem BioAssay data set” (2004).
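Growth conditions: 96-well plates. Treatment: test compound, 48 hours, 5 concentrations. Analysis: linear interpolation between bracketing concentrations; unreached endpoints set to highest concentration. GI50 marks 50% less growth.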 The source made the active and inactive calls. Rule as the data show it: active = GI50 up to about 1.1 µM and inactive = higher.

Columns and labels:
Experiment in all cases: NCI-60 cell line screen, 48 h
[1] = test system: A498
[2] = test system: A549
[3] = test system: CCRF-CEM
[4] = test system: DMS-114
[5] = test system: DMS-273
[6] = test system: HCC 2998
[7] = test system: HT-29
[8] = test system: IGROV-1
[9] = test system: MOLT-4
[10] = test system: Malme-3M
[11] = test system: NCI-H226
[12] = test system: NCI-H23
[13] = test system: NCI-H460
[14] = test system: RXF 393
[15] = test system: SK-MEL-28
[16] = test system: SK-MEL-5
[17] = test system: SW-620
[18] = test system: TK-10
[19] = test system: U-251
[20] = test system: Hs-578T

SMILES	GI50 [1]	GI50 [2]	GI50 [3]	GI50 [4]	GI50 [5]	GI50 [6]	GI50 [7]	GI50 [8]	GI50 [9]	GI50 [10]	GI50 [11]	GI50 [12]	GI50 [13]	GI50 [14]	GI50 [15]	GI50 [16]	GI50 [17]	GI50 [18]	GI50 [19]	GI50 [20]
CC1=C(C(=O)Nc2ccc(C)cc2)C(c2cccc([N+](=O)[O-])c2)C(C(=O)Nc2ccc(C)cc2)=C(C)N1	16.4 µM (inactive)	26.2 µM (inactive)	7.89 µM (inactive)	22.5 µM (inactive)	28.6 µM (inactive)	30.6 µM (inactive)	17.2 µM (inactive)	20.9 µM (inactive)	5.55 µM (inactive)	28.2 µM (inactive)	69.5 µM (inactive)	25.2 µM (inactive)	19.7 µM (inactive)	22.8 µM (inactive)	28.8 µM (inactive)	20.2 µM (inactive)	35.2 µM (inactive)	31.6 µM (inactive)	20.7 µM (inactive)	–
COc1c(OC(C)=O)cc2c(OC(C)=O)c1CC(C)CC(OC)C(O)C(C)/C=C(\C)C(OC(N)=O)C(OC)/C=C\C=C(/C)C(=O)N2 (configuration not stated)	> 100 µM (inactive)	> 71.3 µM (inactive)	> 53.5 µM (inactive)	> 64.7 µM (inactive)	> 70.1 µM (inactive)	36.5 µM (inactive)	> 81.8 µM (inactive)	> 100 µM (inactive)	> 27 µM (inactive)	98.9 µM (inactive)	> 100 µM (inactive)	> 100 µM (inactive)	> 100 µM (inactive)	98.2 µM (inactive)	> 100 µM (inactive)	> 100 µM (inactive)	24 µM (inactive)	> 81.8 µM (inactive)	> 100 µM (inactive)	–
CC1=C(C(=O)Nc2ccc([N+](=O)[O-])cc2)C(c2ccccc2O)C(C(=O)Nc2ccc([N+](=O)[O-])cc2)=C(C)N1	20.1 µM (inactive)	28.2 µM (inactive)	18 µM (inactive)	15.3 µM (inactive)	23.3 µM (inactive)	13.5 µM (inactive)	28.4 µM (inactive)	25.9 µM (inactive)	15.2 µM (inactive)	21.8 µM (inactive)	16.6 µM (inactive)	18.6 µM (inactive)	21.4 µM (inactive)	10.1 µM (inactive)	21.6 µM (inactive)	16.4 µM (inactive)	29.2 µM (inactive)	44.7 µM (inactive)	21.4 µM (inactive)	–
O=C(CCl)Nc1ccc(C(=O)N/N=C/c2ccc(Cl)cc2)cc1	2.21 µM (inactive)	6.07 µM (inactive)	1.82 µM (inactive)	1.45 µM (inactive)	2 µM (inactive)	9.33 µM (inactive)	1.67 µM (inactive)	0.728 µM (active)	1.9 µM (inactive)	2.01 µM (inactive)	18.6 µM (inactive)	2.44 µM (inactive)	2 µM (inactive)	0.946 µM (active)	5.68 µM (inactive)	5.77 µM (inactive)	2.74 µM (inactive)	15.9 µM (inactive)	1.78 µM (inactive)	2.82 µM (inactive)
